Experiments:
[1] = test system: TIII; assay: Cell growth / proliferation (viable cell number); type: cell-based, murine; conditions: mean of at least 2 independent experiments; for % Growth inhibition After 3 days: N6 or N7 20 μM, viable cell number vs untreated control; for % Inhibition of cell Proliferation: after 3 days of culture, vs untreated control
Method: (§1) Human breast (MDA-MB-231, MDA-MB-435 [37]), prostate (LNCaP, from American Type Culture Collection, ATCC, Rockville, MD), and cervical (HeLa) epithelial cancer cells were grown in DMEM-glutamax medium (Gibco Invitrogen, Cergy-Pontoise, France) containing GlutaMAX™, 4.5 g/l glucose and supplemented with 10% heat-inactivated (56°C for 30 min) fetal bovine serum (FBS; Hyclone, Thermo Fisher Scientific, Inc). Human SW480 cells are derived from a grade 3-4 colon carcinoma, while the highly metastatic counterpart SW620 is established from the lymph node of a person. Both SW480 and SW620 cells (obtained from Francis Raul, IRCAD) are highly tumorigenic in nude mice. They were cultured in D-MEM, 10% FCS. The murine melanoma TIII cell line was obtained from Armelle Prévost-Blondel. Murine T29 lymphoma cells, obtained from Philippe Kastner (CNRS, Strasbourg), have been established from Ik^L/L tumors from mice carrying a hypomorphic mutation (Ik^L/L) in the Ikaros gene encoding a transcription factor that regulates lymphocyte differentiation, and acts also as a tumor suppressor in T lymphocytes. The T29 cells were cultured in RPMI medium containing 25 mM Hepes pH 7.6, 1 mM sodium pyruvate, and 10% FCS. Human leukemia cell lines, Jurkat (acute T cell leukemia), HuT 78 (cutaneous T lymphocyte), RAJI (Burkitt lymphoma), and HL60 (promyelocytic leukemia) were cultured in RPMI-1640 medium (Gibco) containing GlutaMAX™, and supplemented with 10% heat-inactivated FBS as described before. The wild-type Chinese hamster ovary cell line (CHO K1) was purchased from American Type Culture Collection (ATCC; Rockville, MD). The CHO LRP1-null cell line (CHO-13-5-1) was kindly provided by D. Strickland [47]. They were cultured in Ham's F12K medium. All cells were cultured with 10% (v/v) heat inactivated (56°C, 30 min) fetal bovine serum (FBS) (Roche Molecular Biochemicals, Indianapolis, IN) and 50 international units/mL penicillin-streptomycin (Invitrogen). Cell death was monitored conveniently by uptake of the trypan blue dye due to plasma membrane permeability of dying and/or dead cells.

[2] = test system: HuT 78; assay: Cell death (trypan blue uptake); type: cell-based, human; conditions: HuT 78, freshly passaged; N6 or N7 20 μM; trypan blue uptake; mean of at least 2 independent experiments
Method: as §1, with “cells. […]” for “cells.”

[3] = test system: surface nucleolin; assay: HIV-1 LAI entry into HeLa-CD4-LTR-LacZ cells (β-galactosidase): function of surface nucleolin; type: cell-based, human; conditions: 0.05-0.8 μM, β-galactosidase at 48 h post-infection
From the text: Surface nucleolin serves as a low affinity receptor implicated in the binding and entry of HIV-1 particles into permissive cells. Consequently, HB-19 treatment of cells prevents HIV binding to cells and thus HIV entry and infection. Here HIV-1 LAI entry was monitored in HeLa-CD4-LTR-LacZ cells containing the bacterial lacZ gene under the control of HIV-1 LTR. Virus entry and replication result in trans-activation of HIV-1 LTR by the viral Tat protein, leading to the expression of β-galactosidase. At 48 h post-infection, cell monolayers are lysed in a phosphate buffer containing Nonidet P-40 (Sigma) (1%; v ⁄ v) and assayed for β-galactosidase activity by measuring optical density at 570 nm.
Figure 2 HB-19 and related Nucant pseudopeptides antagonize surface nucleolin and trigger its down regulation. A. Multivalent pseudopeptides block the biological function of surface nucleolin for HIV entry. […] At 48 h post-infection, the β-galactosidase activity was measured in cell extracts directly to monitor HIV entry (Methods). The abscissa gives % Activity of surface nucleolin calculated from the optical density measurements at 570 nm. […] Cytoplasmic (containing cytoplasmic as well as surface nucleolin) and nuclear extracts were analyzed by immunoblotting using mAb D3 as described (Methods)(panels Surface/cytoplasmic NCL, Nuclear NCL). […]

[4] = test system: MDA-MB 231; assay: Cell death (trypan blue uptake); type: cell-based, human; conditions: MDA-MB 231, subconfluent, N6 or N7 20 μM, mean of at least 2 independent experiments
Method: as §1

[5] = test system: Jurkat; assay: Cell death (trypan blue uptake); type: cell-based, human; conditions: freshly passaged, N6 or N7 20 μM, mean of at least 2 independent experiments
Method: as §1

[6] = test system: SW620; assay: Cell death (trypan blue uptake); type: cell-based, human; conditions: SW620, subconfluent, N6 or N7 20 μM, mean of at least 2 independent experiments
Method: as §1

[7] = test system: SW480; assay: Cell death (trypan blue uptake); type: cell-based, human; conditions: SW480, subconfluent, N6 or N7 20 μM, mean of at least 2 independent experiments
Method: as §1

Substance: Ac-KAKPGKAKPGKAKPG-NH2 [Nucant N7, Presents hexavalently the pseudo-tripeptide Lysψ(CH2N)-Pro-Arg coupled to a similar template as in HB-19]
- % Growth inhibition After 3 days [1]: 55%
- % Cell death After 24 hours [2]: 44%
- inhibitory activity on HIV-1 entry, fold more active compared to the pentavalent constructs N3 and HB-19 [3]: at least 2 fold
- % Cell death After 24 hours [4]: < 5%
- % Cell death After 24 hours [5]: 45%
- % Cell death After 24 hours [6]: < 5%
- % Cell death After 24 hours [7]: < 5%

Substance: Ac-Lys-Aib-Gly-Lys-Aib-Gly-Lys-Aib-Gly-Lys-Aib-Gly-Lys-Aib-Gly-Lys-Aib-Gly-CONH2 [Nucant N6, Presents hexavalently the pseudo-tripeptide Lysψ(CH2N)-Pro-Arg coupled to the polypeptide template containing Aib]
- % Inhibition of cell Proliferation ([1]; 2.5 μM): 12%
- % Inhibition of cell Proliferation ([1]; 5 μM): 20%
- % Inhibition of cell Proliferation ([1]; 10 μM): 32%
- % Inhibition of cell Proliferation ([1]; 20 μM): 45%
- % Growth inhibition After 3 days [1]: 55%
- % Cell death After 24 hours [2]: 44%
- inhibitory activity on HIV-1 entry, fold more active compared to the pentavalent constructs N3 and HB-19 [3]: at least 2 fold
- % Cell death After 24 hours [4]: < 5%
- % Cell death After 24 hours [5]: 45%
- % Cell death After 24 hours [6]: < 5%
- % Cell death After 24 hours [7]: < 5%

Source: paper PMC3199867, “Targeting surface nucleolin with multivalent HB-19 and related Nucant pseudopeptides results in distinct inhibitory mechanisms depending on the malignant tumor cell type” (BMC Cancer, 2011)
